Legend:
[1] = target: Tb-labeled inactive PDGFRβ (Homo sapiens (Human), UniProt P09619); test: biochemical; format: binding; settings: read-out: PDGFR Lantha IC50
[2] = target: His6-TEV-PDGFRβ (557-1016) (Homo sapiens (Human), UniProt P09619); test: PDGFRβ HTRF Assay; format: biochemical; settings: 800 μM ATP, 0.5 μM TK-substrate biotin peptide, 30 min pre-incubation, 3 hours reaction; read-out: PDGFR HTRF IC50
PDGFRβ = PDGFRβ (Rattus norvegicus (Rat), UniProt Q05030); test: PDGFRβ Cellular Assay (PDGFRb P-Y751 HTRF, PDGF-BB stimulated A10 cells); format: cell-based; settings: A10 cells, 3 hours compound, 15 ng/mL PDGFbb for 10 minutes; read-out: PDGFR Cellular IC50
In short: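 Rat A10 cells plated overnight were treated with compound for 3 h, stimulated with rat PDGF-BB (working stock 100 ng/mL in 10% FBS medium) for 10 min, then lysed.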

VEGFR2, unphosphorylated = VEGFR2, unphosphorylated (Homo sapiens (Human), UniProt P35968); test: VEGFR ADP GLO assay; format: biochemical; settings: 5 nM VEGFR2, 1.2 mM ATP, 1 mg/mL Srctide, 180 min
In short: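 Luminescent ADP detection after a 180-min room-temperature reaction of srctide plus ATP (2 mg/mL and 2.4 mM in 2× mix) in pH 7.5 HEPES buffer with DTT, Pluronic and ovalbumin. Compounds, 11 points from 10 µM, first pre-incubated 30 min with enzyme (2× mix 10 nM). IC50s fitted after scaling between DMSO and 1 µM TAK-593 controls.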

VEGFR2, unphosphorylated, sequence (P35968 whole entry, looked up): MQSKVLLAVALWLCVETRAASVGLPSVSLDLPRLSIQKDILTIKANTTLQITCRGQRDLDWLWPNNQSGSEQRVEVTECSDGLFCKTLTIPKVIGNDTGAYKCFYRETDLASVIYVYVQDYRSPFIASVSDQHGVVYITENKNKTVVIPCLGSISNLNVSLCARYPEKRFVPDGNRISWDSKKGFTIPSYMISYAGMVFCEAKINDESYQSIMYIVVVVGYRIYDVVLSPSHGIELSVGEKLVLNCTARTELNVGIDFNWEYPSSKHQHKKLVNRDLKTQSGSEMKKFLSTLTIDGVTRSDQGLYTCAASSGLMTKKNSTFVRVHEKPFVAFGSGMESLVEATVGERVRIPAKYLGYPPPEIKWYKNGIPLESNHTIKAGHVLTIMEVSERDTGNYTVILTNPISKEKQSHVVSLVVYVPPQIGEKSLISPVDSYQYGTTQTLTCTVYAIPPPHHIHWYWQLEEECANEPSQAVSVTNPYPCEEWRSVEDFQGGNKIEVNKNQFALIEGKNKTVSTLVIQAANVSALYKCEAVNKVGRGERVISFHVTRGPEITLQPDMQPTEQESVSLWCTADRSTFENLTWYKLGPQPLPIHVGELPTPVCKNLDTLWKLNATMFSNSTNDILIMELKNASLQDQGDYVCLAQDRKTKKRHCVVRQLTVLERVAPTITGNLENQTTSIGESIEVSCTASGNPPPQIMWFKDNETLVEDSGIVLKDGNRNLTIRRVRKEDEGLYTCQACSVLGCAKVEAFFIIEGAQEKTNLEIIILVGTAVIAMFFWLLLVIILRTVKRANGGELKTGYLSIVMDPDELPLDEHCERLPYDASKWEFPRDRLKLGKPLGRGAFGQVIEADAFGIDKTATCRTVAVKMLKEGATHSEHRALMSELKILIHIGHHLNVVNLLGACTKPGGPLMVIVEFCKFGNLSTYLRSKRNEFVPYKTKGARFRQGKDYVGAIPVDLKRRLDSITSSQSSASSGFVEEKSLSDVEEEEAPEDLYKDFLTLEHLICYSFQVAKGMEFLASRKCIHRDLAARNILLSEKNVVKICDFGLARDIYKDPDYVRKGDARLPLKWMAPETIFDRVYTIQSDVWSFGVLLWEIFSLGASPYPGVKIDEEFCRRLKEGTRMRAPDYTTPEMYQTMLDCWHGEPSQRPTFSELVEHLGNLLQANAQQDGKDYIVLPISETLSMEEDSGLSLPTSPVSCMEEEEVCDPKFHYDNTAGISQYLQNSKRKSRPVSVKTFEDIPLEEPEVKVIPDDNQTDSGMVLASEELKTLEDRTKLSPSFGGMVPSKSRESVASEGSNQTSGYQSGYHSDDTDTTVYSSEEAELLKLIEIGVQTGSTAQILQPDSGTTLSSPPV
Tb-labeled inactive PDGFRβ, sequence (P09619 whole entry, looked up): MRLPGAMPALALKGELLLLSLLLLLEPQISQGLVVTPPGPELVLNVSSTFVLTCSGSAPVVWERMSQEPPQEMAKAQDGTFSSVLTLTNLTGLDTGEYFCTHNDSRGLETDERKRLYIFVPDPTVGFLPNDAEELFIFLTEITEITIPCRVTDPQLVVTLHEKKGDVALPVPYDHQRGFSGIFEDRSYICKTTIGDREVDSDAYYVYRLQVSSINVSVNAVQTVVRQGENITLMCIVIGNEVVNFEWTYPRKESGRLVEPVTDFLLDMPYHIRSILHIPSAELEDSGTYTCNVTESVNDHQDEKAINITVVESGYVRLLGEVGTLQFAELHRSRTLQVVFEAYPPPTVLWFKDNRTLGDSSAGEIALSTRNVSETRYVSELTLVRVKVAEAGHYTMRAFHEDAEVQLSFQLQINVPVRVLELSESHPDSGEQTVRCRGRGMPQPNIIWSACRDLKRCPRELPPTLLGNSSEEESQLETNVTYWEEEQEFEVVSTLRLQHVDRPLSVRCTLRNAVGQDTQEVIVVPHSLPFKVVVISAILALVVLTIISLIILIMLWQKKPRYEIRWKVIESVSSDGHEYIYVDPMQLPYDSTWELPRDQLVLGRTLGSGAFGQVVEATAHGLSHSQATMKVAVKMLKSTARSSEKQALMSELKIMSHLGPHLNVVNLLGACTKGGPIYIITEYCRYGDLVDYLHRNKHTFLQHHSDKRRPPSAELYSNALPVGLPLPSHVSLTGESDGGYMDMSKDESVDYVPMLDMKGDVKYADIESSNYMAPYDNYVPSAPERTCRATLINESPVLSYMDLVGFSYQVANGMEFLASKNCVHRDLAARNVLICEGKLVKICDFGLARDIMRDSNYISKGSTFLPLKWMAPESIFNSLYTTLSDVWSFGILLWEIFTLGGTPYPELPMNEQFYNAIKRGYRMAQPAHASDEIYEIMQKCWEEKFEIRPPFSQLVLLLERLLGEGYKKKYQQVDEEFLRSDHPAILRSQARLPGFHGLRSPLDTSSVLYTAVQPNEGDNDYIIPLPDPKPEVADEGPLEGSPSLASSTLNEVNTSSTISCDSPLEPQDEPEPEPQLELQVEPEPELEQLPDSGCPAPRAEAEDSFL
His6-TEV-PDGFRβ (557-1016), sequence (P09619 whole entry, looked up): as above
PDGFRβ, sequence (Q05030 whole entry, looked up): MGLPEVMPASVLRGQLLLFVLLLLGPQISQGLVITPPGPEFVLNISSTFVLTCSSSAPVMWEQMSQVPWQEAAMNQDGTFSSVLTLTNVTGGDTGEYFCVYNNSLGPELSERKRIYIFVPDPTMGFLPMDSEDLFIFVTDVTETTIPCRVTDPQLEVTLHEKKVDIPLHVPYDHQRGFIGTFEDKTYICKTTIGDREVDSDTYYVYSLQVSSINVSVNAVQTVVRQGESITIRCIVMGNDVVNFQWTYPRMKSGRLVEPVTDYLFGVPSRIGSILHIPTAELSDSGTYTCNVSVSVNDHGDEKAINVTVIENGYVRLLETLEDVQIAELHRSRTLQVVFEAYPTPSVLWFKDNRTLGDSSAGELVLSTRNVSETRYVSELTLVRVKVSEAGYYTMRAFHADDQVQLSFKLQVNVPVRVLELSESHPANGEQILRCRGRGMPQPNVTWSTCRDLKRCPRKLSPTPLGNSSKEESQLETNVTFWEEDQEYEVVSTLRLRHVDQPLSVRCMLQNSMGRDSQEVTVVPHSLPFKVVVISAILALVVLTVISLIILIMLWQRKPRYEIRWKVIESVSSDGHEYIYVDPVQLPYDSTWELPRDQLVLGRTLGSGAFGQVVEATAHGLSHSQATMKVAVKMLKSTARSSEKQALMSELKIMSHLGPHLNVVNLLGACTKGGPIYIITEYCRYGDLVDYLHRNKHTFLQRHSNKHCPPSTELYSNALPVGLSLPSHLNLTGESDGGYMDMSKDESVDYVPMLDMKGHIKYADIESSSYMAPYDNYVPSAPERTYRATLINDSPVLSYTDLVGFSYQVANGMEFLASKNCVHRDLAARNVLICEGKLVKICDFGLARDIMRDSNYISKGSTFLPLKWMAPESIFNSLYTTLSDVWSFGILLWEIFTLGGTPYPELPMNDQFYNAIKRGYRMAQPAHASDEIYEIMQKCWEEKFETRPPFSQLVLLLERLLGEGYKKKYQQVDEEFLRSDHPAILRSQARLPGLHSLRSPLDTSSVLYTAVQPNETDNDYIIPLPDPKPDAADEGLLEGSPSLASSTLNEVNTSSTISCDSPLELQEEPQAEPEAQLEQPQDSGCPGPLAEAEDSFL

Row | Compound | IC50 [1] | IC50 [2] | IC50 (PDGFRβ) | IC50 (VEGFR2, unphosphorylated)
1 | C[C@H]1CCCN1CCNC(=O)c1ccc(F)c(Nc2nn(C)c3nc(Nc4cnn(C)c4)ncc23)c1 [Example 119, (S)-4-fluoro-3-((1-methyl-6-((1-methyl-1H-pyrazol-4-yl)amino)-1H-pyrazolo[3,4-d]pyrimidin-3-yl)amino)-N-(2-(2-methylpyrrolidin-1-yl)ethyl)benzamide] | 1.4 nM | 0.13 nM | 5.8 nM | 6600 nM
2 | Cn1cc(Nc2ncc3c(Nc4cc(C(=O)NCCN5CC(C)(C)C5)ccc4F)nn(C)c3n2)cn1 [Example 120, N-(2-(3,3-dimethylazetidin-1-yl)ethyl)-4-fluoro-3-((1-methyl-6-((1-methyl-1H-pyrazol-4-yl)amino)-1H-pyrazolo[3,4-d]pyrimidin-3-yl)amino)benzamide] | 3.3 nM | 0.32 nM | 9.9 nM | > 7500 nM
3 | Cn1cc(Nc2ncc3c(Nc4cc(C(=O)NCCN5CCCC5(C)C)ccc4F)nn(C)c3n2)cn1 [Example 121, N-(2-(2,2-dimethylpyrrolidin-1-yl)ethyl)-4-fluoro-3-((1-methyl-6-((1-methyl-1H-pyrazol-4-yl)amino)-1H-pyrazolo[3,4-d]pyrimidin-3-yl)amino)benzamide] | 1.3 nM | 0.2 nM | 3.6 nM | > 7500 nM
4 | Cn1cc(Nc2ncc3c(Nc4cc(C(=O)NCCN5CCC6(CC6)C5)ccc4F)nn(C)c3n2)cn1 [Example 122, N-(2-(5-azaspiro[2.4]heptan-5-yl)ethyl)-4-fluoro-3-((1-methyl-6-((1-methyl-1H-pyrazol-4-yl)amino)-1H-pyrazolo[3,4-d]pyrimidin-3-yl)amino)benzamide] | 1.2 nM | 0.15 nM | 4.6 nM | > 7500 nM
5 | COCCn1cc(Nc2ncc3c(Nc4cc(NC(=O)CN5CCC6(CC6)C5)cnc4C)nn(C)c3n2)cn1 [Example 124, N-(5-((6-((1-(2-methoxyethyl)-1H-pyrazol-4-yl)amino)-1-methyl-1H-pyrazolo[3,4-d]pyrimidin-3-yl)amino)-6-methylpyridin-3-yl)-2-(5-azaspiro[2.4]heptan-5-yl)acetamide] | 1.6 nM | 0.35 nM | 4.3 nM | 4930 nM
6 | COCCn1cc(Nc2ncc3c(Nc4cc(NC(=O)CN5CCCC5(C)C)cnc4C)nn(C)c3n2)cn1 [Example 125, 2-(2,2-dimethylpyrrolidin-1-yl)-N-(5-((6-((1-(2-methoxyethyl)-1H-pyrazol-4-yl)amino)-1-methyl-1H-pyrazolo[3,4-d]pyrimidin-3-yl)amino)-6-methylpyridin-3-yl)acetamide] | 1.7 nM | 0.34 nM | 2.7 nM | > 7500 nM
7 | COCCn1cc(Nc2ncc3c(Nc4cc(NC(=O)CN5CC(C)(C)C5)cnc4C)nn(C)c3n2)cn1 [Example 126, 2-(3,3-dimethylazetidin-1-yl)-N-(5-((6-((1-(2-methoxyethyl)-1H-pyrazol-4-yl)amino)-1-methyl-1H-pyrazolo[3,4-d]pyrimidin-3-yl)amino)-6-methylpyridin-3-yl)acetamide] | 2.1 nM | 0.33 nM | 6 nM | 6880 nM
8 | COCCn1cc(Nc2ncc3c(Nc4cc(NC(=O)CN5CC6CCC5CC6)cnc4C)nn(C)c3n2)cn1 [Example 127, 2-(2-azabicyclo[2.2.2]octan-2-yl)-N-(5-((6-((1-(2-methoxyethyl)-1H-pyrazol-4-yl)amino)-1-methyl-1H-pyrazolo[3,4-d]pyrimidin-3-yl)amino)-6-methylpyridin-3-yl)acetamide] | 1.4 nM | 0.27 nM | 2.6 nM | 6490 nM
9 | COCCn1cc(Nc2ncc3c(Nc4cc(NC(=O)CN5CCC[C@@H]5C)cnc4C)nn(C)c3n2)cn1 [Example 128, (S)—N-(5-((6-((1-(2-methoxyethyl)-1H-pyrazol-4-yl)amino)-1-methyl-1H-pyrazolo[3,4-d]pyrimidin-3-yl)amino)-6-methylpyridin-3-yl)-2-(2-methylpyrrolidin-1-yl)acetamide] | 3.6 nM | 0.47 nM | 4.5 nM | > 7500 nM
